In data set [1] the test system is OVA-specific IgG2a (Th1 type). Description: Effect on antibody production of ovalbumin-sensitized mice: IgG2a. It counts as in vivo, BALB/c mouse. As to conditions: Mus musculus, po, 264 h; 30 mg/kg b.w. orally, 5 days a week during 9-day period; serum 11 days after first sensitization, ELISA; read-out: Suppression Rate (%) IgG2a. On the procedure:
(§1) Effect on Antibody Production of Mice Sensitized by Controlled-Release Ovalbumin
(§2) A male BALB/c mouse (Charles River) of 7 weeks old was sensitized by intraabdominal administration, twice at an interval of a week, of a mixture of 10 μg/mouse of ovalbumin (OVA; albumin chicken egg grade III; Sigma Chemical) and 1 mg of aluminum hydroxide hydrate gel suspension (Alum; LSL Co. LTD.). After 11 days from the first sensitization, blood was collected from beneath eye under ether anesthesia, and the amount of OVA-specific IgE, IgG1 (Th2 type) and IgG2a (Th1 type) antibodies in the serum were determined by the ELISA method. A sample compound (30 mg/kg b.w.) was suspended in 0.4 ml of methylcellulose (MC), and the suspension was orally administered, 5 days a week during the 9-day period from the initiation day of sensitization to the day before the day of blood sample collection (1 Group, n=8 to 10).

The next data set deals with OVA-specific IgE. Description: Effect on antibody production of ovalbumin-sensitized mice: IgE. It counts as in vivo, BALB/c mouse. The note with it: Mus musculus, po, 264 h; 30 mg/kg b.w. orally, 5 days a week during 9-day period; serum 11 days after first sensitization, ELISA; read-out: Suppression Rate (%) IgE. On the procedure: as §1, §2

Counter-ions that a name gives are not always drawn. A value given as a limit tells only on which side of the number the result lay.

On to `Cc1nn(-c2ccccn2)c2nc3ccccc3c(N(C)C)c12` [Example 1-38, N,N-Dimethyl-N-[3-methyl-1-(2-pyridinyl)-1H-pyrazolo[3,4-b]quinolin-4-yl]amine], for which the melting point – broadly, the temperature, or range, at which the solid turns liquid – lay in the range of 98 to 101 °C. Also, the inhibition in vivo at 30 mg/kg in data set [1] was -122%. Besides, the inhibition in vivo at 30 mg/kg with OVA-specific IgE came out at 36.1%. Regarding `Cc1nn(-c2ccccn2)c2nc(O)cc(-c3ccccc3)c12` [Example 1-27, 3-Methyl-4-phenyl-1-(2-pyridinyl)-1H-pyrazolo[3,4-b]pyridin-6-ol], the melting point lay in the range of 195 to 196 °C. For the same compound, in data set [1], the inhibition in vivo at 30 mg/kg is 27.1%. The inhibition in vivo at 30 mg/kg in the data set with OVA-specific IgE worked out at 24.3%. On to `Cc1nn(-c2ccccn2)c2nc(O)c3c(c12)CCCC3` [Example 1-29, 1-Methyl-3-(2-pyridinyl)-6,7,8,9-tetrahydro-3H-pyrazolo[3,4-c]isoquinolin-5-ol], for which the melting point lay within 248 to 249 °C. In data set [1], the inhibition in vivo at 30 mg/kg is -22.6%. Besides, in the data set with OVA-specific IgE, the inhibition in vivo at 30 mg/kg was found to be 19.1%. Regarding `Cc1nn(-c2ccccn2)c2[nH]c3ccc(F)cc3c(=O)c12` [Example 1-53, 6-Fluoro-3-methyl-1-(2-pyridinyl)-1,9-dihydro-4H-pyrazolo[3,4-b]quinolin-4-one], the inhibition in vivo at 30 mg/kg amounted to 36.1% in data set [1] and 8% with OVA-specific IgE. In the case of `CCOC(=O)c1cnc2c(c(C)nn2-c2ccccn2)c1O` [Example 1-1, Ethyl 4-hydroxy-3-methyl-1-(2-pyridinyl)-1H-pyrazolo[3,4-b]pyridine-5-carboxylate], the melting point fell in the range of 166 to 169 °C. Also, the inhibition in vivo at 30 mg/kg in data set [1] came out at 17.8%. Besides, the inhibition in vivo at 30 mg/kg in the data set on OVA-specific IgE turned out to be 46.3%.

On to `Cc1nn(Cc2ccccn2)c2nc3ccccc3c(N)c12` [Example 1-68, 3-Methyl-1-(2-pyridinylmethyl)-1H-pyrazolo[3,4-b]quinolin-4-ylamine], for which the inhibition in vivo at 30 mg/kg in data set [1] turned out to be 31.7%; with OVA-specific IgE, 31.6%. Take `Cl.Nc1c2ccccc2nc2c1cnn2-c1ccccn1` [Example 1-67, 1-(2-Pyridinyl)-1H-pyrazolo[3,4-b]quinolin-4-ylamine hydrochloride]: the melting point was in the range of 312 to 315 °C. Moreover, the inhibition in vivo at 30 mg/kg in data set [1] is -30.7%. In the data set on OVA-specific IgE, the inhibition in vivo at 30 mg/kg worked out at 10.5%. As for `Cc1nn(-c2ccccn2)c2nc(O)c(Cc3ccccc3)c(C)c12` [Example 1-25, 5-Benzyl-3,4-dimethyl-1-(2-pyridinyl)-1H-pyrazolo[3,4-b]pyridin-6-ol], the melting point lay within 208 to 209 °C. The inhibition in vivo at 30 mg/kg in data set [1] worked out at 16.5%. Besides, the inhibition in vivo at 30 mg/kg with OVA-specific IgE is 33.9%. On to `Cc1nn(-c2ccccn2)c2nc3ccc(F)cc3c(Cl)c12` [Example 1-52, 4-Chloro-6-fluoro-3-methyl-1-(2-pyridinyl)-1H-pyrazolo[3,4-b]quinoline], for which the values for the inhibition in vivo at 30 mg/kg (in data set [1]; with OVA-specific IgE) were 39.9% and 41.1%, respectively. Taken in the same sequence, the figures for `Cc1ccc(-n2nc(C)c3c(=O)c4ccccc4[nH]c32)nc1` [Example 1-55, 3-Methyl-1-(5-methyl-2-pyridinyl)-1,9-dihydro-4H-pyrazolo[3,4-b]quinolin-4-one hydrochloride] were 13.7% and 11.7%.

`Cc1nn(-c2ccccn2)c2ncc(C(=O)O)c(O)c12` [Example 1-2, 4-Hydroxy-3-methyl-1-(2-pyridinyl)-1H-pyrazolo[3,4-b]pyridine-5-carboxylic acid]: the inhibition in vivo at 30 mg/kg in data set [1] was -67.9%; in the data set with OVA-specific IgE, 29.2%. For `CNc1c2ccccc2nc2c1c(C)nn2-c1ccccn1.Cl` [Example 1-37, N-Methyl-N-[3-methyl-1-(2-pyridinyl)-1H-pyrazolo[3,4-b]quinolin-4-yl]amine hydrochloride], the melting point lay in the range of 229 to 232 °C. In addition, in data set [1], the inhibition in vivo at 30 mg/kg came out at 9.6%. Moreover, the inhibition in vivo at 30 mg/kg in the data set with OVA-specific IgE is 29.6%.

Turning to `Cc1nn(-c2ccccn2)c2nccc(O)c12` [Example 1-3, 3-Methyl-1-(2-pyridinyl)-1H-pyrazolo[3,4-b]pyridin-4-ol], the inhibition in vivo at 30 mg/kg was -39.5% in data set [1] and 19% in the data set with OVA-specific IgE. Regarding `Cc1nn(-c2cccnc2)c2nc3ccccc3c(N)c12` [Example 1-63, 3-Methyl-1-(3-pyridinyl)-1H-pyrazolo[3,4-b]quinolin-4-ylamine dihydrochloride], the values for the inhibition in vivo at 30 mg/kg (in data set [1]; in the data set on OVA-specific IgE) were -5.8% and 25.2%, respectively. As to `Cc1nn(-c2ccccn2)c2[nH]c3ccccc3c(=S)c12` [Example 1-42, 3-Methyl-1-(2-pyridinyl)-1,9-dihydro-4H-pyrazolo[3,4-b]quinolin-4-thione], the melting point was 252 to 253 °C. Also, in data set [1], the inhibition in vivo at 30 mg/kg came to 14.3%. Moreover, in the data set with OVA-specific IgE, the inhibition in vivo at 30 mg/kg came out at 24%. Take `O=c1c2ccccc2[nH]c2c1c(-c1ccccc1)nn2-c1ccccn1` [Example 2-182, 3-Phenyl-1-(2-pyridinyl)-1,9-dihydro-4H-pyrazolo[3,4-b]quinolin-4-one]: the melting point lay in the range of 237 to 240 °C. For `Cc1ccc(-n2nc(C)c3c(N)c4cccc(C)c4nc32)nc1` [Example 2-132, 3,8-Dimethyl-1-(5-methyl-2-pyridinyl)-1H-pyrazolo[3,4-b]quinolin-4-ylamine], the melting point fell in the range of 257 to 260 °C.

For `Cc1nn(-c2ccccn2)c2ncc(C(=O)c3ccccc3)c(O)c12` [Example 1-4, [4-Hydroxy-3-methyl-1-(2-pyridinyl)-1H-pyrazolo[3,4-b]pyridin-5-yl]phenylmethanone], the melting point is 224 to 226 °C. In turn, `Cc1nn(-c2ccccn2)c2[nH]c3ccc(F)c(F)c3c(=O)c12` [Example 2-89, 5,6-Difluoro-3-methyl-1-(2-pyridinyl)-1,9-dihydro-4H-pyrazolo[3,4-b]quinolin-4-one] displayed a melting point of 300 to 303 °C. For the compound `CCOC(=O)c1cnc2c(c(C)nn2-c2ccccn2)c1N` [Example 1-31, Ethyl 4-amino-3-methyl-1-(2-pyridinyl)-1H-pyrazolo[3,4-b]pyridine-5-carboxylate], the melting point is 147 to 149 °C. Compound `Cc1nn(-c2ccccn2)c2nc3ncccc3c(Cl)c12` [Example 2-196, 4-Chloro-3-methyl-1-(2-pyridinyl)-1H-pyrazolo[3,4-b][1, 8]naphthyridine] displayed a melting point of 204 to 205 °C. As for `Cc1nn(-c2ccccn2)c2[nH]c3ccc(N(C)C)cc3c(=O)c12` [Example 2-56, 6-Dimethylamino-3-methyl-1-(2-pyridinyl)-1,9-dihydro-4H-pyrazolo[3,4-b]quinolin-4-one], the melting point fell in the range of 171 to 173 °C. `Cc1ccc(-n2nc(C)c3c(N)c4ccccc4nc32)nc1` [Example 1-54, 3-Methyl-1-(5-methyl-2-pyridinyl)-1H-pyrazolo[3,4-b]quinolin-4-ylamine]: the results for the inhibition in vivo at 30 mg/kg (in data set [1]; with OVA-specific IgE) were -148% and 17.6%, respectively. The compound `COc1ccc2[nH]c3c(c(C)nn3-c3ccccn3)c(=O)c2c1` [Example 2-43, 6-Methoxy-3-methyl-1-(2-pyridinyl)-1,9-dihydro-4H-pyrazolo[3,4-b]quinolin-4-one] registered a melting point of 227 to 229 °C. For the compound `Cc1nn(Cc2ccccn2)c2nc3ccccc3c(Cl)c12` [Example 2-186, 4-Chloro-3-methyl-1-(2-pyridinylmethyl)-1H-pyrazolo[3,4-b]quinoline], the melting point lay within 113 to 115 °C.

The compound `Cc1nn(-c2ccccn2)c2nc3cc(F)c(F)cc3c(OC(C)C)c12` [Example 2-95, 6,7-Difluoro-4-isopropoxy-3-methyl-1-(2-pyridinyl)-1H-pyrazolo[3,4-b]quinoline] had a melting point of 159 to 160 °C. For the compound `CCOC(=O)c1cnc2c(cnn2-c2ccccn2)c1O` [Example 1-6, Ethyl 4-hydroxy-1-(2-pyridinyl)-1H-pyrazolo[3,4-b]pyridine-5-carboxylate], the melting point was 195 to 197 °C.

Take `Cc1cc(O)c2c(C)nn(-c3ccccn3)c2n1` [Example 1-18, 3,6-Dimethyl-1-(2-pyridinyl)-1H-pyrazolo[3,4-b]pyridin-4-ol]: the melting point lay in the range of 175 to 176 °C. For `Cc1nn(-c2ccccn2)c2nc(O)c3c(c12)CCC3` [Example 1-28, 1-Methyl-3-(2-pyridinyl)-3,6,7,8-tetrahydrocyclopenta[d]pyrazolo[3,4-b]pyridin-5-ol], the melting point is 255 to 256 °C.

In turn, `Cc1nn(-c2ccccn2)c2[nH]c3cc(C(=O)O)ccc3c(=O)c12` [Example 2-68, 3-Methyl-4-oxo-1-(2-pyridinyl)-4,9-dihydro-1H-pyrazolo[3,4-b]quinoline-7-carboxylic acid] registered a melting point of more than 300 °C.

Compound `Cc1nn(-c2ccccn2)c2[nH]c3ccc([N+](=O)[O-])cc3c(=O)c12` [Example 2-54, 3-Methyl-6-nitro-1-(2-pyridinyl)-1,9-dihydro-4H-pyrazolo[3,4-b]quinolin-4-one] registered a melting point of more than 300 °C. Compound `Cc1cccc2nc3c(c(C)nn3-c3ccccn3)c(Cl)c12` [Example 2-29, 4-Chloro-3,5-dimethyl-1-(2-pyridinyl)-1H-pyrazolo[3,4-b]quinoline] showed a melting point of 167 to 169 °C. In turn, `Fc1cccc2nc3c(cnn3-c3ccccn3)c(Cl)c12` [Example 2-162, 4-Chloro-5-fluoro-1-(2-pyridinyl)-1H-pyrazolo[3,4-b]quinoline] gave a melting point of 173 to 176 °C.

The values above are taken from patent US6949648B2, “Condensed pyrazole derivatives, process for producing the same and use thereof” (Takeda Pharmaceutical Company Limited, priority 2000, dated 2005).
